In ChEMBL document CHEMBL3507680, “University of Dundee, Gates Library screen for HepG2 cell viability”:

Experiment: Human HepG2 cell viability assay in 384 well format
Type: toxicity, cell-based
Design: dose 125 nL, time 70.5 hour; concentration not given beside the values
Details: HepG2 cells, read-out: Inhibition

Structure (SMILES)	cytotoxicity at 70.5 h
CCn1nc(C)c(CCN2CC3(CCOC3)CCC2=O)c1C (stereo not drawn)	25.5%
Cc1ccccc1N1CCCN(c2ccncn2)CC1	2.64%
Cc1nccn1Cc1nnc(C2CCCN(c3cnccn3)C2)n1C (stereo not drawn)	-18.6%
COc1ccc(/C=C/CN2CCC3(C2)CN(C)C(=O)O3)cc1 (stereo not drawn)	-6.62%
O=C(Cc1cccs1)N1C[C@@H]2CC[C@H](C1)N(Cc1ccccn1)C2=O	-10.5%
O=C(Nc1cccc(-c2cscn2)c1)N1CCC2(CC1)CC(O)CO2 (stereo not drawn)	-11.6%
COc1cccc(CN(C)Cc2nc3cc(C)ccc3[nH]2)c1O	-2.34%
CS(=O)(=O)c1ccc(NC(=O)N2C[C@H](O)[C@@H](N3CCOCC3)C2)cc1	20.5%
CCCc1cc(C(=O)N2C[C@@H](C)[C@](O)(C3CCC3)C2)[nH]n1	8.19%
CN(C)C[C@@H]1CN(C(=O)c2cc(-c3ccccc3)n[nH]2)C[C@@H]1CO	16.6%
Cc1cc(CN(C)CCC(O)c2ccccc2)nn1C (stereo not drawn)	-2.1%
CCCn1cnnc1CNCc1c[nH]nc1-c1ccc(F)cc1	-1.41%
Cc1csc2c(N3CCNC(C(=O)NCc4cccnc4)C3)ncnc12 (stereo not drawn)	18.9%
Cc1nc[nH]c1CN1CCn2nc(CN3CC[C@H](F)C3)cc2C1	-8.01%
COc1ccc2c(c1)OCC(C(=O)NCc1ncc3c(n1)CCC3)C2 (stereo not drawn)	-8.14%
Cn1nc2c(c1NC(=O)c1ccc(C3CCCN3C3CCC3)s1)CCC2 (stereo not drawn)	-6.85%
Cc1cccnc1CN1CCN(C(=O)c2ccn(C(C)(C)C)c2)CC1	40.4%
COc1ccc(-c2ccccc2CN)c(OC)c1	21.8%
COc1ccc(F)c(-c2ccnc(N)c2)c1	-14.3%
CN(C)CCn1ccnc1C1CCN(c2cc(N)nc(N)n2)CC1	-6.61%
CCc1nc(CCn2ccc3nc(OC)c(C#N)cc3c2=O)no1	-4.1%
CCCS(=O)(=O)N1CCCC(c2cccc(C(=O)O)c2)C1 (stereo not drawn)	-9.39%

Structure (SMILES)	cytotoxicity at 70.5 h
CCC[C@@H]1CN(C(=O)c2cnc3ccccc3c2)C[C@H]1NS(C)(=O)=O	-1.26%
O=C(NCc1nc(NC2CCCC2)c2cc(Cl)ccc2n1)c1cncs1	-13.7%
COCCCN(C)c1nc(-c2ccncc2)nc2c1CCN(C(C)=O)C2	-7.86%
CCn1cncc1CNc1ccc(-c2nc(CC(C)C)no2)cn1	2.85%
CN1CCc2[nH]cnc2C12CCN(C(=O)c1noc3c1CCCC3)CC2	-10.9%
CN1CCC(N(CCc2ccccc2)C(=O)c2ccc(C#N)nc2)CC1	-3.27%
Cc1cccc(-c2ncc(CNC(C)Cc3ncccc3C)cn2)c1 (stereo not drawn)	48.7%
Cc1noc(-c2ccnc(N3CCN(C4CCOCC4)CC3)c2)n1	10.1%
Cc1ccccc1-c1cccc(CN2C[C@H]3C(=O)NC[C@@]3(C(=O)O)C2)c1	12.4%
O=C1NC[C@@]2(C(=O)O)CN(Cc3cccc(OC4CCCC4)c3)C[C@@H]12	-3%
Cc1ccccc1N1CCN(C(=O)Cn2ccnc2)CC1=O	14.2%
Cc1ccc(Cl)c(CN2CCC3(CC2)C(C(=O)O)CC(=O)N3C)c1F (stereo not drawn)	-5.82%
O=C(CC[C@@H]1CCCN2CCCC[C@H]12)N1CCC(c2nnc[nH]2)CC1	-7.68%
COc1ccc(CCN2C(=O)O[C@@H]3CN(C4CCOCC4)C[C@@H]32)cc1	5.89%
O=C(NC1CCN(C2CC2)CC1)N1CCN(c2cnccn2)CC1	3.56%
Cc1ccc(-c2cc(CNC(=O)N3CCC(N(C)C)CC3)on2)cc1	4.4%
CC(C)N1CCN(C(=O)Nc2cnc3c(cnn3C(C)C)c2)CC1	1.68%
Cc1nc(CNC(=O)NCC(O)c2ccccc2)cs1 (stereo not drawn)	-2.52%
CC(C)C(C(=O)N1CCN(c2nccs2)CC1)n1cncn1 (stereo not drawn)	0.606%
CC(C)n1ncc2cc(NC(=O)N3CCC(CO)CC3)cnc21	3.41%
CC(=O)N1CCC(NC(=O)N2CCN(c3cnccn3)CC2)CC1	1.14%
